How the values were obtained:
[1] = target: nucleotide binding site of three different antibodies; assay: Sandwich ELISA, summary over three antibodies
Procedure: (§1) FIG. 2B illustrates a sandwich ELISA, in accordance with various embodiments;
(§2) HRP-streptavidin was used to bind the biotin, and a fluorescent substrate was used to quantify the amount of indole-3-butyric acid that was present on the surface.
Thus, the monovalent Kd values for the indole binding to the nucleotide binding site of three different antibodies ranged between 1-7 μM, showing a 7- to 50-fold enhancement in binding affinity over adenine.

[2] = target: nucleotide binding site of chimeric human/mouse Rituximab; assay: Sandwich ELISA binding of biotin-linked indole-3-butyric acid to antigen-captured antibody; details: fit of normalized fluorescent intensity, read-out: Kd (binding affinity)
Excerpt: as §1, §2

[3] = target: nucleotide binding site of rat anti-DNP antibody; assay: as above; details: fit of normalized fluorescent intensity, read-out: Kd (binding affinity)
Excerpt: as §1, §2

[4] = target: nucleotide binding site of mouse anti-FITC antibody; assay: as above; details: fit of normalized fluorescent intensity, read-out: Kd (binding affinity)
Excerpt: as §1, §2

SMILES: O=C(O)CCCc1c[nH]c2ccccc12 [indole-3-butyric acid]
- Kd ([1]; range over three different antibodies, read-out: monovalent Kd values): 1 to 7 µM
- enhancement in binding affinity over adenine ([1]; relative to adenine): 7- to 50 fold
- Kd [2]: 1700 nM
- Kd [3]: 1270 nM
- Kd [4]: 6.41 µM
